Measured values reported in US20200017496A1 (priority 2017, published 2020).
Like-named read-outs stand apart in the source and are kept apart here.

Test system: Escherichia coli (ECO) isolates
Assay: MIC of compounds alone and combined with antibacterials, broth microdilution (CLSI)
Format: cell-based
Conditions: for MIC: Escherichia coli
How it was run: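 Inoculum 5·10^5 CFU/mL (final), log phase, ca-MHB; 16-20 h, 35° C, ambient air. MIC = lowest conc. with no visible growth; ATB MIC read at each compound level.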

## C=CC1=C(C(=O)O)N2C(=O)[C@@H](NC(=O)/C(=N\OCC(=O)O)c3csc(N)n3)[C@H]2SC1 [FIX, Cefixime]
  MIC ATB in combination: >128 µg/mL
ECO 4133, AF1 @ 4 μg/mL
  MIC ATB in combination: <=0.25 μg/mL
ECO 4133, AF1 @ 8 μg/mL
  MIC ATB in combination: <=0.25 μg/mL
ECO 5302, AF1 @ 4 μg/mL
  MIC ATB in combination: <=0.25 μg/mL
ECO 5302, AF1 @ 8 μg/mL
  MIC ATB in combination: <=0.25 μg/mL
ECO 131119, AF1 @ 4 μg/mL
  MIC ATB in combination: <=0.25 μg/mL
ECO 131119, AF1 @ 8 μg/mL
  MIC ATB in combination: <=0.25 μg/mL
ECO 180070, AF1 @ 4 μg/mL
  MIC ATB in combination: <=0.25 μg/mL
ECO 180070, AF1 @ 8 μg/mL
  MIC ATB in combination: <=0.25 μg/mL
ECO 190314, AF1 @ 4 μg/mL
  MIC ATB in combination: <=0.25 μg/mL
ECO 190314, AF1 @ 8 μg/mL
  MIC ATB in combination: <=0.25 μg/mL
ECO 190317, AF1 @ 4 μg/mL
  MIC ATB in combination: <=0.25 μg/mL
ECO 190317, AF1 @ 8 μg/mL
  MIC ATB in combination: <=0.25 μg/mL
ECO 190457, AF1 @ 8 μg/mL
  MIC ATB in combination: 0.031 µg/mL
ECO 190549, AF1 @ 4 μg/mL
  MIC ATB in combination: <=0.25 μg/mL
ECO 190549, AF1 @ 8 μg/mL
  MIC ATB in combination: <=0.25 μg/mL
ECO 200159, AF1 @ 4 μg/mL
  MIC ATB in combination: <=0.25 μg/mL
ECO 200159, AF1 @ 8 μg/mL
  MIC ATB in combination: <=0.25 μg/mL
ECO 200259, AF1 @ 4 μg/mL
  MIC ATB in combination: <=0.25 μg/mL
ECO 200259, AF1 @ 8 μg/mL
  MIC ATB in combination: <=0.25 μg/mL
ECO 200344, AF1 @ 4 μg/mL
  MIC ATB in combination: <=0.25 μg/mL
ECO 200344, AF1 @ 8 μg/mL
  MIC ATB in combination: <=0.25 μg/mL
ECO 260096, AF1 @ 4 μg/mL
  MIC ATB in combination: <=0.25 μg/mL
ECO 260096, AF1 @ 8 μg/mL
  MIC ATB in combination: <=0.25 μg/mL
ECO 260304, AF1 @ 4 μg/mL
  MIC ATB in combination: <=0.25 μg/mL
ECO 260304, AF1 @ 8 μg/mL
  MIC ATB in combination: <=0.25 μg/mL
ECO 260508, AF1 @ 4 μg/mL
  MIC ATB in combination: <=0.25 μg/mL
ECO 260508, AF1 @ 8 μg/mL
  MIC ATB in combination: <=0.25 μg/mL
ECO RGN238, AF1 @ 4 μg/mL
  MIC ATB in combination: <=0.25 μg/mL
ECO RGN238, AF1 @ 8 μg/mL
  MIC ATB in combination: <=0.25 μg/mL
ECO UFR15, AF1 @ 4 μg/mL
  MIC ATB in combination: <=0.25 μg/mL
ECO UFR15, AF1 @ 8 μg/mL
  MIC ATB in combination: <=0.25 μg/mL
ECO UFR16, AF1 @ 4 μg/mL
  MIC ATB in combination: <=0.25 μg/mL
ECO UFR16, AF1 @ 8 μg/mL
  MIC ATB in combination: <=0.25 μg/mL
ECO UFR17, AF1 @ 8 μg/mL
  MIC ATB in combination: 16 µg/mL
ECO UFR18, AF1 @ 4 μg/mL
  MIC ATB in combination: 16 µg/mL
ECO UFR18, AF1 @ 8 μg/mL
  MIC ATB in combination: 0.5 µg/mL
ECO UFR19, AF1 @ 4 μg/mL
  MIC ATB in combination: 16 µg/mL
ECO UFR19, AF1 @ 8 μg/mL
  MIC ATB in combination: <0.25 µg/mL
ECO UFR20, AF1 @ 4 μg/mL
  MIC ATB in combination: 1 µg/mL
ECO UFR20, AF1 @ 8 μg/mL
  MIC ATB in combination: 1 µg/mL
ECO UFR61O, AF1 @ 4 μg/mL
  MIC ATB in combination: 0.25 µg/mL
ECO UFR62, AF1 @ 4 μg/mL
  MIC ATB in combination: <=0.25 μg/mL
ECO UFR62, AF1 @ 8 μg/mL
  MIC ATB in combination: <=0.25 μg/mL
ECO UFR74, AF1 @ 4 μg/mL
  MIC ATB in combination: 32 µg/mL
ECO UFR74, AF1 @ 8 μg/mL
  MIC ATB in combination: 1 µg/mL
ECO UFR86, AF1 @ 4 μg/mL
  MIC ATB in combination: 0.5 µg/mL
ECO UFR86, AF1 @ 8 μg/mL
  MIC ATB in combination: <=0.25 μg/mL
ECO UFR174, AF1 @ 4 μg/mL
  MIC ATB in combination: <=0.25 μg/mL
ECO UFR174, AF1 @ 8 μg/mL
  MIC ATB in combination: <0.25 µg/mL
ECO UFR175, AF1 @ 4 μg/mL
  MIC ATB in combination: <=0.25 μg/mL
ECO UFR175, AF1 @ 8 μg/mL
  MIC ATB in combination: <=0.25 μg/mL
ECO UFR176, AF1 @ 4 μg/mL
  MIC ATB in combination: <=0.25 μg/mL
ECO UFR176, AF1 @ 8 μg/mL
  MIC ATB in combination: <=0.25 μg/mL
ECO UFR184, AF1 @ 4 μg/mL
  MIC ATB in combination: 8 µg/mL
ECO UFR184, AF1 @ 8 μg/mL
  MIC ATB in combination: <=0.25 μg/mL
ECO UFR185, AF1 @ 4 μg/mL
  MIC ATB in combination: 4 µg/mL
ECO UFR185, AF1 @ 8 μg/mL
  MIC ATB in combination: <0.25 µg/mL
ECO UFR186, AF1 @ 4 μg/mL
  MIC ATB in combination: <=0.25 μg/mL
ECO UFR186, AF1 @ 8 μg/mL
  MIC ATB in combination: <=0.25 μg/mL
ECO UFR187, AF1 @ 4 μg/mL
  MIC ATB in combination: <=0.25 μg/mL
ECO UFR187, AF1 @ 8 μg/mL
  MIC ATB in combination: <=0.25 μg/mL
ECO UFR189, AF1 @ 4 μg/mL
  MIC ATB in combination: <=0.25 μg/mL
ECO UFR189, AF1 @ 8 μg/mL
  MIC ATB in combination: <=0.25 μg/mL
ECO UFR190, AF1 @ 4 μg/mL
  MIC ATB in combination: <=0.25 μg/mL
ECO UFR190, AF1 @ 8 μg/mL
  MIC ATB in combination: <=0.25 μg/mL
ECO UFR191, AF1 @ 4 μg/mL
  MIC ATB in combination: <=0.25 μg/mL
ECO UFR191, AF1 @ 8 μg/mL
  MIC ATB in combination: <=0.25 μg/mL
ECO UFR207, AF1 @ 4 μg/mL
  MIC ATB in combination: <=0.25 μg/mL
ECO UFR207, AF1 @ 8 μg/mL
  MIC ATB in combination: <=0.25 μg/mL
ECO UFR208, AF1 @ 4 μg/mL
  MIC ATB in combination: 64 µg/mL
ECO UFR208, AF1 @ 8 μg/mL
  MIC ATB in combination: 32 µg/mL
ECO UFR209, AF1 @ 8 μg/mL
  MIC ATB in combination: 0.063 µg/mL
ECO UFR210, AF1 @ 4 μg/mL
  MIC ATB in combination: <=0.25 μg/mL
ECO UFR210, AF1 @ 8 μg/mL
  MIC ATB in combination: <=0.25 μg/mL
ECO UFR211, AF1 @ 4 μg/mL
  MIC ATB in combination: <=0.25 μg/mL
ECO UFR211, AF1 @ 8 μg/mL
  MIC ATB in combination: <=0.25 μg/mL
ECO UFR212, AF1 @ 4 μg/mL
  MIC ATB in combination: 64 µg/mL
ECO UFR212, AF1 @ 8 μg/mL
  MIC ATB in combination: <=0.25 μg/mL
ECO UFR218, AF1 @ 4 μg/mL
  MIC ATB in combination: <=0.25 μg/mL
ECO UFR218, AF1 @ 8 μg/mL
  MIC ATB in combination: <=0.25 μg/mL
ECO 190317, alone, read-out: MIC
  MIC: > 128 µg/mL
ECO 190457, alone, read-out: MIC
  MIC: 128 µg/mL
ECO UFR16, alone, read-out: MIC
  MIC: > 128 µg/mL
ECO UFR20, alone
  MIC: 512 µg/mL
ECO UFR209, alone, read-out: MIC
  MIC: 1020 µg/mL
Strain ECO 4133 (TEM-30, OXA-1), ATB alone
  MIC: 0.5 µg/mL
Strain ECO 4133 (TEM-30, OXA-1), CLA @ 4 μg/ml+ ATB
  MIC: 0.5 µg/mL
Strain ECO 5302 (TEM-1, OXA-1), ATB alone
  MIC: 0.5 µg/mL
Strain ECO 5302 (TEM-1, OXA-1), CLA @ 4 μg/ml+ ATB
  MIC: 0.5 µg/mL
Strain ECO 131119 (TEM-1, OXA-48), ATB alone
  MIC: ≤ 0.25 µg/mL
Strain ECO 131119 (TEM-1, OXA-48), CLA @ 4 μg/ml+ ATB
  MIC: ≤ 0.25 µg/mL
Strain ECO 180070 (TEM-1, CTX-M-15), ATB alone, read-out: MIC
  MIC: 128 µg/mL
Strain ECO 190314 (CTX-M-1), ATB alone
  MIC: 16 µg/mL
Strain ECO 190317 (TEM-1, SHV-12, CTX-M-15, OXA-1), ATB alone, read-out: MIC
  MIC: > 128 µg/mL
Strain ECO 190317 (TEM-1, SHV-12, CTX-M-15, OXA-1), CLA @ 4 μg/ml+ ATB
  MIC: 0.5 µg/mL
Strain ECO 190457 (CTX-M-15, OXA-1), ATB alone, read-out: MIC
  MIC: 128 µg/mL
Strain ECO 190457 (CTX-M-15, OXA-1), CLA @ 4 μg/ml+ ATB
  MIC: 0.5 µg/mL
Strain ECO 190549 (CTX-M-1), ATB alone
  MIC: 16 µg/mL
Strain ECO 190549 (CTX-M-1), CLA @ 4 μg/ml+ ATB
  MIC: 0.5 µg/mL
Strain ECO 200159 (TEM-1, CTX-M-14), ATB alone
  MIC: 8 µg/mL
Strain ECO 200159 (TEM-1, CTX-M-14), CLA @ 4 μg/ml+ ATB
  MIC: ≤ 0.25 µg/mL
Strain ECO 200259 (CTX-M-14), ATB alone
  MIC: 8 µg/mL
Strain ECO 200259 (CTX-M-14), CLA @ 4 μg/ml+ ATB
  MIC: ≤ 0.25 µg/mL
